# Test results from US12673959B2, “Polysubstituted imidazolo[4,5-c][1,2]thiazine derivative and use thereof” (KYUNGPOOK NATIONAL UNIVERSITY INDUSTRY-ACADEMIC COOPERATION …, priority 2020, dated 2026).
# System: CLP-induced sepsis mouse model
# Assay: Survival rate in cecal ligation and puncture (CLP)-induced sepsis mouse model
# Assay type: in vivo
# Details: ICR male mice; compound administered intravenously into tail 12 hours and 50 hours after surgery; FIG. 1
# Procedure: The anti-inflammatory efficacy of the prepared compound was tested by the survival rate of peritonitis-induced sepsis mouse model. CLP-induced sepsis mouse models were prepared by in vivo methods to verify anti-inflammatory activity, and the preparation method is a widely used experimental method [Wang H, Nat. Med., 2004, 10, 1216-1221]. Forty 6-week-old ICR male mice were divided into 10 mice in each group and the survival rate was observed.
# First, the male mice were given respiratory anesthesia using isoflurane, an incision of about 2 cm was made in the middle of the abdomen to take out the appendix adjacent to the intestine, a 5.0. mm portion from the tip of the appendix was ligated with a 3.0-silk suture and pierced once with a 22-gauge needle, and then the incision was closed again with a 4.0-silk suture. Sham mice were sutured without tying or piercing the appendix after incision, and the compound prepared 12 hours and 50 hours after surgery was administered intravenously into mouse tail.
smiles,measurement,value
"CCN1c2nc(N3CCCC3)n(C)c2C(=O)C(c2ccc(Cl)cc2)S1(=O)=O (stereo not shown) [Compound 1-42, 3-(4-chlorophenyl)-1-ethyl-5-methyl-6-(pyrrolidin-1-yl)-3,5-dihydroimidazo[4,5-c][1,2]thiazine-4(1H)-one 2,2-dioxide]",survival rate of the CLP-induced sepsis mouse model increased compared to a group of which only CLP was performed,60%
